Data on nine molecules can be found in article PMC2895357 (Journal of Medicinal Chemistry, 2010).

Series [1] has as its target T1, TbGalE (UDP-galactose 4′-epimerase from Trypanosoma brucei) (Trypanosoma brucei, UniProt Q8T8E9).
T1 sequence (Q8T8E9 1-395): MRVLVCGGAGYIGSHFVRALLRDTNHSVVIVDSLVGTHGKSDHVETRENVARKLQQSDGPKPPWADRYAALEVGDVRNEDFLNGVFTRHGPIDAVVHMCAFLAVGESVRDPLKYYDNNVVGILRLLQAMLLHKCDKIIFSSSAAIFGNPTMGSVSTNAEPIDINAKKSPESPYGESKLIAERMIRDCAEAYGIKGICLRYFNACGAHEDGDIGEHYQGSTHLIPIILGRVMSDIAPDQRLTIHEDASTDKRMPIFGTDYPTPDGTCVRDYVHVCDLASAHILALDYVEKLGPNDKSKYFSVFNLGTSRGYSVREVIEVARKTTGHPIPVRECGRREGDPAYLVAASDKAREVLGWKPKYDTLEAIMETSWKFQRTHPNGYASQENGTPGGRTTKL
As to the kind of experiment: TbGalE inhibition assay. It counts as biochemical. The conditions noted are these: for Hill Slope: TbGalE potency curve.

A short description of series [2]: Cytotoxicity assay against human MRC5 cells. It counts as cell-based. The conditions noted are these: human, MRC5 cells.
The test system of series [3] is cultured T. brucei. It counts as cell-based, Trypanosoma brucei. The conditions noted are these: whole-cell T. brucei, three days, Alamar Blue.
For series [4], the system named is human MRC5 cells. Description: Cytotoxicity assay against human MRC5 cells. The conditions noted are these: human MRC5 cells, three days, Alamar Blue. The format is cell-based. (In general: Alamar Blue is a resazurin reagent that responds to reducing activity.)
Series [5] concerns Trypanosoma cruzi. The conditions noted are these: cited from earlier work.

A value given as a limit tells only on which side of the number the result lay.

As usually defined, the EC50 is the concentration needed to bring the measured effect to its halfway point. High values mean lower potency in that assay, low ones higher potency in that assay. As to `CCn1c2ccccc2c2cc(NC(=O)c3ccccc3-c3ccccc3C(=O)O)ccc21` [compound 2], the “Hill Slope” value in series [1] was 1.2 ± 0.3. Besides, the concentration for a half-maximal effect (EC50) at 3 days in series [2] is more than 50 µM. On to `O=C(O)c1cc(Cl)ccc1-c1ccc(Cl)cc1C(=O)NC1=CC2=C(CC1)c1c(Cl)cc(Cl)cc1C2` [compound 14], for which the “Tb EC50” value in series [3] is “no activity”. Besides, the “MRC5 EC50” value in series [4] is given as “demonstrated inhibition of MRC5 growth”. For the molecule `O=C(O)c1cc(Cl)ccc1-c1ccc(Cl)cc1C(=O)Nc1ccc2c(c1)Cc1ccccc1-2` [compound 13], in series [2], the EC50 at 3 days was more than 50 µM.

In series [2], `O=C(O)c1ccccc1-c1ccccc1C(=O)Nc1cc2c3ccccc3ccc2c2ccccc12` [compound 12] came in with an EC50 at 3 days of more than 50 µM. As for `O=C(O)c1ccccc1-c1ccccc1C(=O)Nc1ccc2c(c1)C(=O)c1ccccc1-2` [compound 5], the EC50 at 3 days in series [2] was more than 50 µM. In the case of `O=C(O)c1ccccc1-c1ccccc1C(=O)Nc1ccc2c(c1)Cc1cc(F)ccc1-2` [compound 10], the half-maximal effective concentration (EC50) at 3 days in series [2] was more than 50 µM.

A word on the inhibition: it is how much of the control response was suppressed. On to `CO[C@@H]1[C@@H](OC(N)=O)[C@@H](O)[C@H](Oc2ccc3c(O)c(NC(=O)c4ccc(O)c(CC=C(C)C)c4)c(=O)oc3c2C)OC1(C)C` [novobiocin, reference compound], for which, in series [5], the “inhibition of growth of Trypanosoma cruzi” value is “inhibits the growth”. In addition, the inhibition at 10 µM in series [1] (read-out: TbGalE inhibition at 10 μM) was not above 50%. For `O=C(O)c1ccccc1-c1ccccc1C(=O)Nc1ccc2c(c1)nc(O)c1ccccc12` [compound 1], the “Hill Slope” value in series [1] is recorded as 1.8 ± 0.6. In series [2], this molecule displayed an EC50 at 3 days of more than 50 µM. `COC1C(OC(=O)c2ccc(C)[nH]2)C(O)C(Oc2ccc3c(O)c(NC(=O)c4ccc(O)c(CC=C(C)C)c4)c(=O)oc3c2Cl)OC1(C)C` (stereo not drawn) [compound 3, clorobiocin]: in series [5], the “inhibition of growth of Trypanosoma cruzi” value is listed as “inhibit the growth”. In addition, the “Hill Slope” value in series [1] is 2.1 ± 0.5. The molecule also came in with an EC50 at 3 days in series [2] of more than 50 µM.
